Test results published in patent publication US20130344026A1, “Dimeric Smac Mimetics” (priority 2009, published 2013).
Like-named read-outs stand apart in the source and are kept apart here.

Tested on: PANC-1 cells
Assay: cell viability assay in PANC-1 cells (compound alone, + 100 ng/ml TNFa, + 300 ng/ml TRAIL)
Assay type: cell-based
[1] = Homo sapiens, PANC-1, compound alone, Tables 6-10, read-out: IC50 (μM) in cell viability assay in PANC-1 cells: Compound alone
[2] = with 100 ng/ml TNFa, Tables 6-10, read-out: IC50 (μM) in cell viability assay in PANC-1 cells: Compound + 100 ng/ml TNFa
[3] = with 300 ng/ml TRAIL, Tables 6-10, read-out: IC50 (μM) in cell viability assay in PANC-1 cells: Compound + 300 ng/ml TRAIL
[4] = Homo sapiens, PANC-1, compound alone, Tables 15-18, read-out: IC50 (uM) in cell viability assay in PANC-1 cells: Cmpnd alone
[5] = with 100 ng/ml TNFa, Tables 15-18, read-out: IC50 (uM) in cell viability assay in PANC-1 cells: Cmpnd + 100 ng/ml TNFa
[6] = with 300 ng/ml TRAIL, Tables 15-18, read-out: IC50 (uM) in cell viability assay in PANC-1 cells: Cmpnd + 300 ng/ml TRAIL

IC50 [1]	IC50 [2]	IC50 [3]	Structure (SMILES)	also measured
> 1 µM	0.299 µM	0.327 µM	CN[C@@H](C)C(=O)N[C@@H](CCCCCC[C@H](NC(=O)[C@H](C)NC)C(=O)N1c2ccccc2C[C@H]1C(=O)N[C@@H]1CCCc2ccccc21)C(=O)N1c2ccccc2C[C@H]1C(=O)N[C@@H]1CCCc2ccccc21 [Compound 93]	
> 1 µM			CN[C@@H](C)C(=O)N[C@H](C(=O)N1C[C@@H](OC(=O)c2cccc(C(=O)O[C@H]3C[C@@H](C(=O)N[C@H]4CCCc5ccccc54)N(C(=O)[C@@H](NC(=O)[C@H](C)NC)C(C)(C)C)C3)c2)C[C@H]1C(=O)N[C@H]1CCCc2ccccc21)C(C)(C)C [Compound 206]	
> 1 µM	0.0163 µM	0.0357 µM	CN[C@@H](C)C(=O)N[C@H](C(=O)N[C@@H](CCNC(=O)c1cccc(C(=O)N[C@H]2C[C@@H](C(=O)N[C@@H]3CCCc4ccccc43)N(C(=O)[C@@H](NC(=O)[C@H](C)NC)C(C)(C)C)C2)c1)C(=O)N[C@H](C)c1ccccc1)C(C)C [Compound 175]	
> 1 µM	0.614 µM	> 1 µM	CN[C@@H](C)C(=O)N[C@@H](CCCCNC(=O)c1cc(C(=O)NCCCC[C@H](NC(=O)[C@H](C)NC)C(=O)N2CCC[C@H]2Cn2nnnc2Sc2ccccc2)[nH]n1)C(=O)N1CCC[C@H]1Cn1nnnc1Sc1ccccc1 [Compound 208]	
> 1 µM	> 1 µM	> 1 µM	CN[C@@H](C)C(=O)N[C@H](C(=O)N1CCC[C@H]1Cn1ccnc1Cc1ccccc1)[C@@H](C)OCC#CC#CCO[C@H](C)[C@H](NC(=O)[C@H](C)NC)C(=O)N1CCC[C@H]1Cn1ccnc1Cc1ccccc1 [Compound 74]	
> 1 µM	> 1 µM	> 1 µM	CN[C@@H](C)C(=O)N[C@H](C(=O)N1CCC[C@H]1Cn1cnnc1CCc1ccccc1)[C@@H](C)OCCCCCCO[C@H](C)[C@H](NC(=O)[C@H](C)NC)C(=O)N1CCC[C@H]1Cn1cnnc1CCc1ccccc1 [Compound 86]	
> 1 µM	0.054 µM	0.089 µM	CN[C@@H](C)C(=O)N[C@@H](C)C(=O)N[C@@H](CCNC(=O)c1cccc(C(=O)N[C@H]2C[C@@H](C(=O)N[C@@H]3CCCc4ccccc43)N(C(=O)[C@@H](NC(=O)[C@H](C)NC)C(C)(C)C)C2)c1)C(=O)N[C@H](C)c1ccccc1 [Compound 178]	

More lines, now with the values behind:

Structure (SMILES)	IC50 [1]	IC50 [2]	IC50 [3]	also measured
CN[C@@H](C)C(=O)Nc1nc(-c2ccccc2)c(C(=O)NCCc2cn([C@H]3C[C@@H](C(=O)N[C@@H]4CCCc5ccccc54)N(C(=O)[C@@H](NC(=O)[C@H](C)NC)C(C)(C)C)C3)nn2)s1 [Compound 196]	> 1 µM	0.577 µM	0.622 µM	
CN[C@@H](C)C(=O)N[C@H](C(=O)N1CCC[C@H]1C(=O)N[C@H]1c2ccccc2C[C@@H]1NC(=O)c1ccc(C(=O)N[C@H]2Cc3ccccc3[C@@H]2NC(=O)[C@@H]2CCCN2C(=O)[C@@H](NC(=O)[C@H](C)NC)C(C)(C)C)cc1)C(C)(C)C [Compound 124]	> 1 µM	0.061 µM	0.066 µM	
CN[C@@H](C)C(=O)N[C@@H](CCCCNC(=O)NCCCC[C@H](NC(=O)[C@H](C)NC)C(=O)N1C[C@@H](Oc2ccccc2)C[C@H]1C(=O)N[C@@H]1CCCc2ccccc21)C(=O)N1C[C@@H](Oc2ccccc2)C[C@H]1C(=O)N[C@@H]1CCCc2ccccc21 [Compound P2-37]				IC50 [4]: > 1 µM; IC50 [5]: 0.174 µM; IC50 [6]: 0.527 µM
CN[C@@H](C)C(=O)N[C@@H](CCCCCC[C@H](NC(=O)[C@H](C)NC)C(=O)N1CCC[C@H]1CNC(=O)Cc1ccccc1)C(=O)N1CCC[C@H]1CNC(=O)Cc1ccccc1 [Compound 77]	> 1 µM	> 1 µM	> 1 µM	
CN[C@@H](C)C(=O)N[C@@H](CC(=O)NCC#CC#CCNC(=O)C[C@H](NC(=O)[C@H](C)NC)C(=O)N1CCC[C@H]1C(=O)N[C@@H]1CCCc2ccccc21)C(=O)N1CCC[C@H]1C(=O)N[C@@H]1CCCc2ccccc21 [Compound P2-41]				IC50 [4]: > 1 µM; IC50 [5]: 0.094 µM; IC50 [6]: 0.092 µM
CN[C@@H](C)C(=O)N[C@H](C(=O)N1C[C@@H](NC(=O)c2cccc(C(=O)N[C@H]3C[C@@H](C(=O)NCCc4ccc(S(N)(=O)=O)cc4)N(C(=O)[C@@H](NC(=O)[C@H](C)NC)C(C)(C)C)C3)c2)C[C@H]1C(=O)NCCc1ccc(S(N)(=O)=O)cc1)C(C)(C)C [Compound 8]	> 1 µM	> 1 µM	> 1 µM	
CN[C@@H](C)C(=O)N[C@@H](CCCCCC[C@H](NC(=O)[C@H](C)NC)C(=O)N[C@H]1c2ccccc2C[C@@H]1NC(=O)c1cc2ccccc2cc1OC)C(=O)N[C@H]1c2ccccc2C[C@@H]1NC(=O)c1cc2ccccc2cc1OC [Compound 58]	> 1 µM	> 1 µM	> 1 µM	
CN[C@@H](C)C(=O)N[C@@H](CCC(=O)Nc1cccc(CCc2cccc(NC(=O)CC[C@H](NC(=O)[C@H](C)NC)C(=O)N3CCC[C@H]3C(=O)N[C@@H]3CCCc4ccccc43)c2)c1)C(=O)N1CCC[C@H]1C(=O)N[C@@H]1CCCc2ccccc21 [Compound P2-44]				IC50 [4]: > 1 µM; IC50 [5]: 0.017 µM; IC50 [6]: 0.01 µM
CN[C@@H](C)C(=O)N[C@H](C(=O)N1CCCC1C(=O)N[C@H](COCC#CC#CCOC[C@@H](NC(=O)[C@H](C)NC(=O)[C@H](NC(=O)[C@@H](CO)NC)C1CCCCC1)C(C)C)C1CCCCC1)C(C)(C)C (stereo partly shown) [Compound H-8]				IC50 [4]: > 1 µM; IC50 [5]: 0.017 µM; IC50 [6]: 0.033 µM
CN[C@@H](C)C(=O)N[C@H](C(=O)N1C[C@@H](NC(=O)CCc2ccc(C(=O)N[C@H]3C[C@@H](C(=O)N[C@@H]4CCCc5ccccc54)N(C(=O)[C@@H](NC(=O)[C@H](C)NC)C(C)(C)C)C3)cc2)C[C@H]1C(=O)N[C@@H]1CCCc2ccccc21)C(C)(C)C [Compound 191]	> 1 µM	0.013 µM	0.012 µM	
CN[C@@H](C)C(=O)Nc1nc(CC(=O)NCCCC[C@H](NC(=O)[C@H](C)NC)C(=O)N2CCC[C@H]2C(=O)N[C@@H]2CCCc3ccccc32)cs1 [Compound 189]	> 1 µM	> 1 µM	> 1 µM	
CN[C@@H](C)C(=O)N[C@@H](CCCCNC(=O)CCCCCCC(=O)NCCCC[C@H](NC(=O)[C@H](C)NC)C(=O)N1CCC[C@H]1C(=O)N[C@@H]1CCCc2ccccc21)C(=O)N1CCC[C@H]1C(=O)N[C@@H]1CCCc2ccccc21 [Compound P2-34]				IC50 [4]: > 1 µM; IC50 [5]: 0.04 µM; IC50 [6]: 0.064 µM
CN[C@@H](C)C(=O)N[C@@H](CCCCCC[C@H](NC(=O)[C@H](C)NC)C(=O)N1CCC[C@H]1CNC(=O)c1ccccn1)C(=O)N1CCC[C@H]1CNC(=O)c1ccccn1 [Compound 17]	> 1 µM	> 1 µM	> 1 µM	
CN[C@@H](C)C(=O)N[C@@H](CCC(=O)Nc1ccc2c(c1)Cc1cc(NC(=O)CC[C@H](NC(=O)[C@H](C)NC)C(=O)N3CCC[C@H]3C(=O)N[C@@H]3CCCc4ccccc43)ccc1-2)C(=O)N1CCC[C@H]1C(=O)N[C@@H]1CCCc2ccccc21 [Compound 117]	> 1 µM	0.02 µM	0.025 µM	
CN[C@@H](C)C(=O)N[C@@H](CCCCNC(=O)c1cccc(C(=O)N[C@H]2C[C@@H](C(=O)N[C@@H]3CCCc4ccccc43)N(C(=O)[C@@H](NC(=O)[C@H](C)NC)C(C)(C)C)C2)c1)C(=O)N1CCC[C@H]1C(=O)NC(c1ccccc1)c1ccccc1 [Compound 184]	> 1 µM	0.027 µM	0.076 µM	
CN[C@@H](C)C(=O)N[C@H](C(=O)N[C@@H](CCNC(=O)c1ccc(CCc2ccc(C(=O)N[C@@H]3C[C@@H](C(=O)N[C@@H]4CCCc5ccccc54)N(C(=O)[C@@H](NC(=O)[C@H](C)NC)C(C)(C)C)C3)cc2)cc1)C(=O)NC(C)C(C)C)C(C)C (stereo partly shown) [Compound 201]	> 1 µM	0.027 µM	0.057 µM	
CN[C@@H](C)C(=O)N[C@H](C(=O)N1C[C@@H](NC(=O)c2cccc(C(=O)N[C@H]3C[C@@H](C(=O)NC4CCCc5cccc(F)c54)N(C(=O)[C@@H](NC(=O)[C@H](C)NC)C(C)(C)C)C3)c2)C[C@H]1C(=O)NC1CCCc2cccc(F)c21)C(C)(C)C (single isomer, unassigned) [Compound 70]	> 1 µM	0.0011 µM	0.0033 µM	
CN[C@@H](C)C(=O)N[C@H](C(=O)N1C[C@@H](NC(=O)c2cc(C(=O)N[C@H]3C[C@@H](C(=O)N[C@H](C)c4ccccc4)N(C(=O)[C@@H](NC(=O)[C@H](C)NC)[C@@H](C)OC)C3)[nH]n2)C[C@H]1C(=O)N[C@H](C)c1ccccc1)[C@@H](C)OC [Compound P3-110]				IC50 (Homo sapiens, PANC-1 cells, compound alone, read-out: IC50 (uM) in cell viability assay in PANC-1 cells, Cmpnd alone): > 1 µM; IC50 (PANC-1 cells, + 100 ng/ml TNFa, read-out: IC50 (uM) in cell viability assay in PANC-1 cells, Cmpnd + 100 ng/ml TNFa): 0.056 µM; IC50 (PANC-1 cells, + 300 ng/ml TRAIL, read-out: IC50 (uM) in cell viability assay in PANC-1 cells, Cmpnd + 300 ng/ml TRAIL): 0.073 µM
CN[C@@H](C)C(=O)N[C@@H](CCCCCC[C@H](NC(=O)[C@H](C)NC)C(=O)N1CCC[C@H]1CC(=O)N[C@H](C)c1ccccc1)C(=O)N1CCC[C@H]1CC(=O)N[C@H](C)c1ccccc1 [Compound 79]	> 1 µM	> 1 µM	> 1 µM	
CN[C@@H](C)C(=O)N[C@@H](CCNC(=O)c1ccc(-c2ccc(C(=O)NCC[C@H](NC(=O)[C@H](C)NC)C(=O)N3CCC[C@H]3C(=O)N[C@@H]3CCCc4ccccc43)cc2)cc1)C(=O)N1CCC[C@H]1C(=O)N[C@@H]1CCCc2ccccc21 [Compound P2-50]				IC50 [4]: > 1 µM; IC50 [5]: 0.067 µM; IC50 [6]: 0.019 µM
